Earlier results on 1 compound are cited in US20050084547A1, “Natural product based apoptosis inducers” (PhytoMyco Research Corporation, priority 2003, published 2005).

The test system of this data set is human leukemia HL-60 cells. The note with it: microscopy, flow cytometry, DNA fragmentation assay. A general note: In flow cytometry, cells or beads pass a laser one at a time.

Consider `CC(=O)OC(C1CO1)C(OC(C)=O)C1CO1` (stereo not shown) [DADAG, diacetyldianhydrogalactitol], for which the apoptosis induction result is given as “induced apoptosis in the HL-60 cells”.
